Laboratory results taken from patent EP0412760A2, “Benzopyran derivatives” (Beecham Group p.l.c., priority 1989, dated 1991).

Tests used:
[1] = system: Spontaneously hypertensive rats; assay: Antihypertensive activity: systolic blood pressure by tail cuff method; format: in vivo; conditions: dose of 0.05 mg/kg p.o.
Procedure: Systolic blood pressures were recorded by a modification of the tail cuff method described by I.M. Claxton, M.G. Palfreyman, R.H. Poyser, R.L. Whiting, European Journal of Pharmacology, 37, 179 (1976). A W+W BP recorder, model 8005 was used to display pulses. Prior to all measurements rats were placed in a heated environment (33.5 ± 0.5°C) before transfer to a restraining cage. The determination of blood pressure was the mean of 5 readings. Spontaneously hypertensive rats (ages 12-18 weeks) with systolic blood pressures >180 mmHg were considered hypertensive.

trachea = assay: Bronchodilator activity: relaxation of isolated trachea spirals; format: cell-based, guinea pigs; conditions: Cavia porcellus; fall in resting tension as percentage of total relaxation evoked by 10⁻³M isoprenaline; guinea pig trachea spirals, Krebs solution at 37°C; read-out: IC₅₀
Procedure: Male guinea pigs (300-600g) were stunned by a blow to the head and bled from the carotid artery. The trachea was exposed, dissected free of connective tissue, and transferred to oxygenated Krebs solution at 37 °C. Next, spirals (2 per trachea) were prepared by cutting the whole trachea spirally along its longitudinal axis and then dividing this spiral lengthwise. Each preparation was mounted, using silk thread, in a 10ml organ bath filled with Krebs solution at 37 °C and bubbled with 5% CO₂ with O₂. The resting tension of the preparations was set at 2g and changes in muscle tension were monitored isometrically by means of a UFI (2oz) force and displacement transducer (Ormed Ltd) connected to a Linseis pen recorder. All preparations were allowed to equilibrate for 60 minutes. During this equilibration period the preparations were washed by upward displacement at 15 minute intervals and, if necessary, the resting tension was readjusted to 2g using a mechanical micromanipulator system.
Once a steady resting tension had been obtained, the preparations were dosed simultaneously with the test compound (10⁻⁸-2x10⁻⁵M), and finally a maximum relaxation achieved by addition of 10⁻³M isoprenaline. The fall in tension evoked by the test compound was expressed as a percentage of the total relaxation evoked in the presence of 10⁻³ isoprenaline. […]

- IC50 (trachea): 230 nM
SMILES: CCc1ccc2c(c1)[C@@H](N1CCCCC1=O)[C@H](O)C(C)(C)O2 [compound of formula (I), 3,4-Dihydro-2,2-dimethyl-6-ethyl-4R-(2-oxopiperidin-1-yl)-2H-1-benzopyran-3S-ol]
- maximum fall in blood pressure [1]: 19%
